| melting point | Structure (SMILES) |
| --- | --- |
| 115.7 °C | Cc1ccc(-c2ccccc2)cc1Cn1c(Cl)nn(C)c1=O [Compound 7, 5-chloro-2-methyl-4-(2-methyl-5-phenylbenzyl)-2,4-dihydro-3H-1,2,4-triazol-3-one] |
| 95.6 °C | CSc1nn(C)c(=O)n1Cc1cc(-c2ccccc2)ccc1C [Compound 8, 5-methylthio-2-methyl-4-(2-methyl-5-phenylbenzyl)-2,4-dihydro-3H-1,2,4-triazol-3-one] |
| 138.9 °C | Cc1ccc(-c2ccccc2)cc1Cn1c(C)nn(C)c1=O [Compound 10, 2,5-dimethyl-4-(2-methyl-5-phenylbenzyl)-2,4-dihydro-3H-1,2,4-triazol-3-one] |
| 102.4 °C | Cc1ccc(-c2ccccc2)cc1Cn1c(C2CC2)nn(C)c1=O [Compound 538, 5-cyclopropyl-2-methyl-4-(2-methyl-5-phenylbenzyl)-2,4-dihydro-3H-1,2,4-triazol-3-one] |
